Marks after values point to notes of the source that are not given here.
Experiments:
[1] = DPPH radical-scavenging activity
Procedure: The essential oil of Mentha piperita was performed using a 1,1-diphenyl-2-picryl hydrazyl (DPPH) technique, as reported in Brand-Williams et al. with some changes. Briefly, a 2.5 mL aliquot of DPPH solution was mixed with 1.25 mL of the essential oil at a concentration of 1 mg/mL, and then the obtained solution was incubated at 25 °C for 30 min. The absorbance was measured at 517 nm.

[2] = Trolox equivalent antioxidant capacity (ABTS) assay
Procedure: The assay was carried out using the ABTS^+ method as described by Re et al. with some modifications. Briefly, the ABTS radical cation was generated by mixing 10 mL of 2 mM ABTS with 100 µL of potassium persulfate (2.45 mM). After the reaction mixture is kept in the dark at room temperature for 16 h, methanol is used to dilute the ABTS solution to obtain an absorbance of 0.700 at 734 nm. Two hundred µL of the essential (1 mg/mL) was mixed with 2 mL of diluted ABTS solution. The mixture was allowed to react for 1 min, and the absorbance was measured at 734 nm. Trolox is used as a reference standard. The results were expressed as an IC50 value (µg/mL).

H2O2-scavenging activity = assay: H2O2-scavenging activity
Procedure: The H2O2 radical scavenging activity of extracts was determined according to the method described by Ruch et al.. Briefly, 40 mM of H2O2 solution was prepared in phosphate buffer (pH 7.4). A total of 1 mL of M. piperita HE at a concentration of 1 mg/mL was added to 0.6 mL of H2O2 solution. The mixture was incubated at 25 °C for 10 min, and the absorbance of H2O2 was determined at 230 nm against a blank solution containing phosphate buffer without H2O2. The positive control used is Ascorbic acid. The H2O2 trapping capacity was expressed as an IC50 value (µg/mL).

E. coli ATCC 25922 = assay: MIC and MBC determination; assay type: cell-based, Escherichia coli; design: MBC: unit not given beside the values
Procedure: (§1) The antibacterial activity of M. piperita essential oils (MPEO) from Ouezzane and Azrou regions (Morocco) was evaluated against the following six bacterial strains: three gram-positive bacteria (Staphylococcus aureus ATCC 29213, Listeria monocytogenes ATCC 13932, Bacillus subtilis ATCC 6633), and three gram-negative bacteria (Escherichia coli ATCC 25922, Salmonella typhimurium ATCC 700408, and Pseudomonas aeruginosa ATCC 27853).
(§2) An inoculum of the frozen stock (−20 °C) was utilized to inoculate Mueller–Hinton Agar (Biokar, Beauvais, France), where it was incubated for 24 h at 37 °C to revive the bacteria. Then, an inoculum was removed from a bacterial colony and diluted to 0.5 McFarland in sterile salt water (0.9% NaCl) before being transferred to a sterile tube where the weighty particles were left to settle for 5 min. The top homogeneous solutions were transferred to a new, sterile tube and their concentration was adjusted to the 0.5 McFarland turbidity standard to obtain an inoculum of about […], which was used in the antibacterial testing
(§3) The minimum inhibitory concentration (MIC) is the lowest essential oil concentration that could prevent the growth of bacteria. […]
(§4) The MBC was determined to be the minimum concentration at which no growth occurred in the medium. […]

[3] = tested on: S. typhimurium ATCC 700408; assay: MIC and MBC determination; assay type: cell-based, Salmonella typhimurium
Procedure: as §1, §2
(§5) The minimum inhibitory concentration (MIC) is the lowest essential oil concentration that could prevent the growth of bacteria. The determination of MIC values against bacteria was conducted according to the previously reported procedure with a minor change, using Mueller–Hinton broth (Biokar, Beauvais, France) and bacteria. Twenty-four h of incubation was done at 37 °C. The antibiotic chloramphenicol served as a positive control. In sterile microtubes, two-fold serial dilutions of EO concentrations ranging from 4% to 0.0625 % (v/v) were made in Mueller–Hinton broth containing 5% of DMSO. […] Then, 5 µL of the previously produced bacterial suspension was added to each tube. Each suspension was homogenized and incubated for 24 h at 37 °C. As a first negative control, microtubes containing liquid medium and EO were used. […]
as §4

P. aeruginosa ATCC 27853 = assay: MIC and MBC determination; assay type: cell-based, Pseudomonas aeruginosa; design: unit not given beside the values; conditions: chloramphenicol, unit not given
Procedure: as §1, §2, §3, §4

S. aureus ATCC 29213 = assay: MIC and MBC determination; assay type: cell-based, Staphylococcus aureus; design: MBC: unit not given beside the values
Procedure: as §1, §2, §3, §4

[4] = tested on: L. monocytogenes ATCC 13932; assay: MIC and MBC determination; assay type: cell-based, Listeria monocytogenes; design: MIC / MBC: unit not given beside the values
Procedure: as §1, §2, §5, §4

B. subtilis ATCC 6633 = assay: MIC and MBC determination; assay type: cell-based, Bacillus subtilis; design: MIC / MBC: unit not given beside the values
Procedure: as §1, §2, §5, §4

[5] = tested on: carrageenan-induced rat paw edema; assay: Carrageenan-induced paw edema; assay type: in vivo, Wistar rats; conditions: EO 100 mg/kg oral, indomethacin 10 mg/kg
Procedure: The studies were carried out on adult rats of the Wistar strain, obtained from the central animal facility of the Faculty of Medicine and Pharmacy of Rabat. These rats weighed between 200 and 250 g. The temperature was maintained at 20 °C with a lighting cycle of 12 h of light and 12 h of darkness. The study was approved by the Ethics Committee from Mohammed V University, (Protocol code # UA-2021-09; date of approval 27 May 2021).
The anti-inflammatory effects were studied using the carrageenan-induced paw edema method previously described by Musa G. Rege et al.. Briefly, Wistar rats (160 to 200 g) were randomly divided into […] (n = 6). The first two groups were orally administered with 100 mg/kg of M. pepirita EO. The third group was a negative control which received distilled water, while the last group was considered a positive control and received indomethacin (10 mg/kg) as the reference anti-inflammatory drug. After 60 min, all rats were injected subcutaneously with carrageenan solution (0.05 mL of 1% carrageenan suspended in 0.9% NaCl) into the subplantar region of the left hind paw. […] The anti-inflammatory effect is calculated using the following equation. In each group, the anti-inflammatory effect is measured by the percentage of edema inhibition (% INH) in paw volume, as follows: %INH = (mean [VL − VR] Control − mean [VL − VR] Treated)/[VL − VR] Control × 100 • With: VL: volume of the left paw. • VR: volume of the right paw.

[6] = chloramphenicol, unit not given

## O=C1O[C@H]([C@@H](O)CO)C(O)=C1O [Ascorbic acid]
[1]
  DPPH IC50: 09.03 ± 0.02 ^a µg/mL
[2]
  ABTS Test IC50: 74.81 ± 0.01 ^a µg/mL
H2O2-scavenging activity
  H2O2 IC50: 3.23 ± 0.08 ^a µg/mL

## O=C(N[C@H](CO)[C@H](O)c1ccc([N+](=O)[O-])cc1)C(Cl)Cl [Chloramphenicol]
E. coli ATCC 25922
  MBC/MIC: 1.0
E. coli ATCC 25922; [6]
  MBC: 8.0
[3]
  MBC/MIC: 1.0
[3]; [6]
  MBC: 64.0
  MIC: 64.0
P. aeruginosa ATCC 27853
  MBC: >64.0
  MIC: >64.0
S. aureus ATCC 29213
  MBC/MIC: 1.0
S. aureus ATCC 29213; [6]
  MBC: 4.0
[4]
  MBC/MIC: 1.0
[4]; [6]
  MBC: 2.0
  MIC: 2.0
B. subtilis ATCC 6633
  MBC/MIC: 1.0
B. subtilis ATCC 6633; [6]
  MBC: 32.0
  MIC: 32.0

## COc1ccc2c(c1)c(CC(=O)O)c(C)n2C(=O)c1ccc(Cl)cc1 [Indomethacin]
[5]; 1 h 30 min
  Mean Edema Volume (Left-Right Paw): 0.146 ± 0.04 mL
  Percentage Inhibition of Edema: 69.77%
[5]; 3 h
  Mean Edema Volume (Left-Right Paw): 0.178 ± 0.01 mL
  Percentage Inhibition of Edema: 70.23%
[5]; 6 h
  Mean Edema Volume (Left-Right Paw): 0.191 ± 0.01 mL
  Percentage Inhibition of Edema: 59.61%

Source: article PMC9658668, “Phytochemical Variability, In Vitro and In Vivo Biological Investigations, and In Silico Antibacterial Mechanisms of Mentha piperita Essential Oils Collected from Two Different Regions in Morocco” (Foods, 2022)
